Read-outs that look alike come from different tables or passages of the source.

Assay [1] relates to NCIH460. Description: Anti-cancer screen (MTT), NCIH460. The class given is cell-based. As to conditions: Homo sapiens, NCI-H460, 48 hours with compound, tested at 0.01-100 µM. Summed up: (§1)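 GI50, TGI and LC50 derived from % growth, normalized to untreated wells and a time-zero plate read at compound addition. Compound applied for 48 h at five concentrations (0.01–100 μM) to 5000 cells/well in DMEM with 10% FBS; viability by 3 h MTT, read at 570 nm.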

Assay [2] deals with HCT116. Description: Anti-cancer screen (MTT), HCT116. It is filed as cell-based. The conditions noted are these: Homo sapiens, HCT-116, 48 hours with compound, tested at 0.01-100 µM. A digest of the protocol: as §1
For assay [3], the system named is MDAMB-231/U 251. Description: Anti-cancer screen (MTT), MDAMB-231/U 251. It is filed as cell-based. As to conditions: for CC50: read-out: MDAMB-231/U 251 LC50. Summed up:
as §1

For assay [4], the system named is NCIH460, HCT116, MDAMB-231/U 251. Description: Anti-cancer screen, mean GI50 over the cell lines. The class given is cell-based. As to conditions: in µM. A digest of the protocol:
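Growth was scored by MTT absorbance at 570 nm relative to control wells and a pre-treatment T0 reading. Compounds were tested at five final concentrations (0.01–100 µM, triplicate) for 48 h on NCIH460, HCT116 and U251 cells, each plated at 5000 cells/well 24 h before dosing.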

Assay [5] deals with HDAC. Description: HDAC inhibition. The class given is biochemical. The conditions noted are these: for HDAC Inhibition 10 μM: compound at 10 μM; for HDAC Inhibition 1 μM: compound at 1 μM.
Where [6] appears, read: 48 hours with compound, MTT, tested at 0.01-100 µM.

Regarding `O=C(Nc1ccc(C(=O)NO)o1)OCc1ccccc1` [Example 75, Benzyl{5-[(hydroxyamino)carbonyl]-2-furyl}carbamate], in assay [1], the GI50 worked out at 100 µM, the IC (TGI) was above 100 µM and the LC50 is above 100 µM. In addition, in assay [2], the GI50 is above 100 µM, the IC (TGI) is above 100 µM and the LC50 (concentration giving 50% net cell kill relative to T0) is above 100 µM. Besides, the CC50 in assay [3] (48 h) is above 100 µM. Moreover, in assay [3] (setting [6]), the 50% growth inhibitory concentration (GI50) came out at 9 µM and the IC (TGI) was 85 µM. Besides, the “Mean GI50” value in assay [4] was above 100. The “HDAC Inhibition 10 μM” value in assay [5] was determined as 6.61.

Take `O=C(Nc1ccc(C(=O)NO)cc1)OCC1c2ccccc2-c2ccccc21` [Example 76]: in assay [1], the GI50 was found to be 10 µM, the IC (TGI) turned out to be 82 µM and the 50% lethal concentration (LC50) is above 100 µM. In assay [2], the GI50 worked out at 7.5 µM, the IC (TGI) amounted to 65 µM and the LC50 (concentration giving 50% net cell kill relative to T0) was above 100 µM. In assay [3] (48 h), the CC50 stood at 90 µM. Moreover, in assay [3] (setting [6]), the 50% growth inhibitory concentration (GI50) was found to be 3 µM and the IC (TGI) is 9 µM. The “Mean GI50” value in assay [4] is 6.8. In assay [5], the “HDAC Inhibition 1 μM” value came out at 50.50 and the “HDAC Inhibition 10 μM” value stood at 75.80.

Regarding `CC(=O)N(O)C(=O)Cc1csc(NC(=O)OCc2ccsc2)n1` [Example 77, 3-thienylmethyl(4-{2-[acetyl(hydroxy)amino]-2-oxoethyl}-1,3-thiazol-2-yl)carbamate], in assay [1], the 50% growth inhibitory concentration (GI50) came out at 53 µM, the IC (TGI) is above 100 µM and the LC50 is above 100 µM. Further, in assay [2], the 50% growth inhibitory concentration (GI50) was 60 µM, the IC (TGI) was above 100 µM and the LC50 (concentration giving 50% net cell kill relative to T0) is above 100 µM. Further, the CC50 in assay [3] (48 h) is above 100 µM. For the same molecule, in assay [3] (setting [6]), the GI50 was found to be 6 µM and the IC (TGI) was 65 µM. The “Mean GI50” value in assay [4] came out at 39.7. Moreover, in assay [5], the “HDAC Inhibition 1 μM” value is 7.7 and the “HDAC Inhibition 10 μM” value worked out at 14.8.

With `CC(=O)N(O)C(=O)Cc1csc(NC(=O)OCc2ccc(Br)s2)n1` [Example 78, (5-bromo-2-thienyl)methyl(4-{2-[acetyl(hydroxy)amino]-2-oxoethyl}-1,3-thiazol-2-yl)carbamate], in assay [1], the 50% growth inhibitory concentration (GI50) stood at 6.5 µM, the IC (TGI) was 45 µM and the LC50 was above 100 µM. In addition, in assay [2], the 50% growth inhibitory concentration (GI50) was 30 µM and the IC (TGI) was determined as 80 µM. In assay [2] (read-out: HCT116 LC50), the CC50 was above 100 µM. In assay [3] (setting [6]), the GI50 was 20 µM, the IC (TGI) is 75 µM and the CC50 was above 100 µM. For the same molecule, the “Mean GI50” value in assay [4] was 18.8. For the same molecule, in assay [5], the “HDAC Inhibition 1 μM” value turned out to be 3.61 and the “HDAC Inhibition 10 μM” value came out at 35.88.

Take `CC(=O)N(O)C(=O)Cc1csc(NC(=O)OCc2cccs2)n1` [Example 80, 2-Thienylmethyl(4-{2-[acetyl(hydroxy)amino]-2-oxoethyl}-1,3-thiazol-2-yl)carbamate]: in assay [1], the 50% growth inhibitory concentration (GI50) was determined as 53 µM, the IC (TGI) was above 100 µM and the LC50 is above 100 µM. Besides, in assay [2], the GI50 was above 100 µM, the IC (TGI) was above 100 µM and the LC50 (concentration giving 50% net cell kill relative to T0) is above 100 µM. For the same molecule, the CC50 in assay [3] (48 h) was above 100 µM. In addition, in assay [3] (setting [6]), the 50% growth inhibitory concentration (GI50) was found to be 35 µM and the IC (TGI) was 96 µM. Besides, in assay [4], the “Mean GI50” value is recorded as above 100. The “HDAC Inhibition 10 μM” value in assay [5] worked out at 5.28.

In the case of `CC(=O)ONC(=O)c1ccc(CNC(=O)OCc2cccs2)cc1` [Example 82, 2-Thienylmethyl(4-{[(acetyloxy)amino]carbonyl}benzyl)carbamate], in assay [1], the concentration for 50% growth inhibition (GI50) is 24 µM, the IC (TGI) was determined as 62 µM and the LC50 is above 100 µM. In assay [2], the concentration for 50% growth inhibition (GI50) was 7 µM, the IC (TGI) was found to be 41 µM and the LC50 (concentration giving 50% net cell kill relative to T0) came to 78 µM. Also, the CC50 in assay [3] (48 h) was above 100 µM. Further, in assay [3] (setting [6]), the 50% growth inhibitory concentration (GI50) is 28 µM and the IC (TGI) was 52 µM. For the same molecule, in assay [4], the “Mean GI50” value is recorded as 19.66. In assay [5], the “HDAC Inhibition 1 μM” value was 48.96 and the “HDAC Inhibition 10 μM” value came to 86.12.

Turning to `CC(=O)ONC(=O)c1ccc(CNC(=O)OCc2nccs2)cc1` [Example 83, 1,3-thiazol-2-ylmethyl(4-{[(acetyloxy)amino]carbonyl}benzyl)carbamate], in assay [1], the 50% growth inhibitory concentration (GI50) stood at 30 µM, the IC (TGI) was 60 µM and the LC50 stood at 90 µM. Also, in assay [2], the concentration for 50% growth inhibition (GI50) was found to be 10 µM, the IC (TGI) is 56 µM and the LC50 (concentration giving 50% net cell kill relative to T0) amounted to 84 µM. Further, in assay [3] (48 h), the CC50 is above 100 µM. In assay [3] (setting [6]), the GI50 is 9 µM and the IC (TGI) was determined as 66 µM. In assay [4], the “Mean GI50” value stood at 16.33. In assay [5], the “HDAC Inhibition 1 μM” value stood at 22.38 and the “HDAC Inhibition 10 μM” value was 63.89.

Turning to `COC(=O)ONC(=O)c1ccc(CNC(=O)OCc2cccs2)cc1` [Example 84, 2-Thienylmethyl[4-({[(methoxycarbonyl)oxy]amino}carbonyl)benzyl]carbamate], in assay [1], the 50% growth inhibitory concentration (GI50) was 81 µM, the IC (TGI) was above 100 µM and the median lethal concentration (LC50) was above 100 µM. Besides, in assay [2], the GI50 is above 100 µM, the IC (TGI) is above 100 µM and the LC50 (concentration giving 50% net cell kill relative to T0) was above 100 µM. Besides, the CC50 in assay [3] (48 h) was above 100 µM. In assay [3] (setting [6]), the concentration for 50% growth inhibition (GI50) was determined as 54 µM and the IC (TGI) was above 100 µM. Also, in assay [4], the “Mean GI50” value is recorded as above 100. Also, in assay [5], the “HDAC Inhibition 1 μM” value turned out to be 20.20 and the “HDAC Inhibition 10 μM” value is reported as 61.74.

`O=C(CCCCCNC(=O)Cc1csc(NC(=O)OCc2cccnc2)n1)NO` [Example 87, pyridin-3-ylmethyl[4-(2-{[6-(hydroxyamino)-6-oxohexyl]amino}-2-oxoethyl)-1,3-thiazol-2-yl]carbamate]: in assay [1], the 50% growth inhibitory concentration (GI50) is above 100 µM, the IC (TGI) is above 100 µM and the median lethal concentration (LC50) is above 100 µM. Further, in assay [2], the GI50 is above 100 µM, the IC (TGI) was above 100 µM and the LC50 (concentration giving 50% net cell kill relative to T0) is above 100 µM. For the same molecule, the CC50 in assay [3] (48 h) was above 100 µM. Moreover, in assay [3] (setting [6]), the GI50 came to 10 µM and the IC (TGI) is above 100 µM. In addition, the “Mean GI50” value in assay [4] is above 100. Moreover, in assay [5], the “HDAC Inhibition 1 μM” value was 42.24 and the “HDAC Inhibition 10 μM” value amounted to 87.80.

As to `O=C(CCCCCNC(=O)Cc1csc(NC(=O)OCc2nc3ccccc3s2)n1)NO` [Example 90, 1,3-Benzothiazol-2-ylmethyl[4-(2-{[6-(hydroxyamino)-6-oxohexyl]amino}-2-oxoethyl)-1,3-thiazol-2-yl]carbamate], in assay [1], the GI50 was 38 µM, the IC (TGI) came to 98 µM and the LC50 was above 100 µM. In assay [2], the GI50 worked out at 38 µM, the IC (TGI) is 65 µM and the LC50 (concentration giving 50% net cell kill relative to T0) was above 100 µM. In addition, in assay [3] (48 h), the CC50 is 98 µM. In assay [3] (setting [6]), the GI50 was determined as 0.06 µM and the IC (TGI) came to 48 µM. In assay [4], the “Mean GI50” value is reported as 25.35. In assay [5], the “HDAC Inhibition 1 μM” value was 61.63 and the “HDAC Inhibition 10 μM” value worked out at 98.85.

The values are drawn from patent US20100152188A1, “Novel Heterocyclic Compounds” (priority 2005, published 2010).
